Calls of active or inactive are those of the source.
How the values were obtained:
[1] = target: DNA damage-inducible transcript 3 protein (Mus musculus, UniProt P35639); assay type: functional, Cricetulus griseus
[2] = test system: HEK293; test: EBV LMP1 TES2 canonical NF-kB signalling blockers – cell-based, HEK293, luciferase, cherry-pick, dose response (AID 588343); assay type: functional; settings: Homo sapiens
[3] = target: Mucolipin-3 (Homo sapiens, UniProt Q8TDD5); test: Fluorescence counterscreen assay for […] agonists: dose response cell-based high-throughput screening assay to identify agonists of the transient receptor potential channel ML3 (TRPML3). [Related pubchem assays: 1424, 1448 ]; assay type: functional
Sequence of Mucolipin-3 (Q8TDD5 whole entry): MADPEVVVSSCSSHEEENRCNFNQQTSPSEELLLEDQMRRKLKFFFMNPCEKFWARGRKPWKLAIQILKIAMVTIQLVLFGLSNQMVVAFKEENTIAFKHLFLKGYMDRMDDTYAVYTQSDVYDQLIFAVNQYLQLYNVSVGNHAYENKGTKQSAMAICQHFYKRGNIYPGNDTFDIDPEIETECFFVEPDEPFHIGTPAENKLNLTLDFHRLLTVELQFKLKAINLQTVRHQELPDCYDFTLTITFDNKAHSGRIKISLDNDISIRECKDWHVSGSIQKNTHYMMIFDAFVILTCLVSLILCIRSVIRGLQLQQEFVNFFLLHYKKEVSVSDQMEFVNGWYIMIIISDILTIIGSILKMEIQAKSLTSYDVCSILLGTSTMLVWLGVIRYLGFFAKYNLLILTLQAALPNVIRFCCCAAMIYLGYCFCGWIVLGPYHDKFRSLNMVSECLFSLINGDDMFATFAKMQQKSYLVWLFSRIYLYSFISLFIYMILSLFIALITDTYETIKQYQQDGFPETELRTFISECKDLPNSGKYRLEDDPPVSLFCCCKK

[4] = target: T1, High affinity choline transporter 1 (Homo sapiens, UniProt Q9GZV3); test: human choline transporter blockers, potency – cell-based, 5-point CRC, membrane potential dye, dose response (AID 504840); assay type: functional
T1 sequence (Q9GZV3 whole entry): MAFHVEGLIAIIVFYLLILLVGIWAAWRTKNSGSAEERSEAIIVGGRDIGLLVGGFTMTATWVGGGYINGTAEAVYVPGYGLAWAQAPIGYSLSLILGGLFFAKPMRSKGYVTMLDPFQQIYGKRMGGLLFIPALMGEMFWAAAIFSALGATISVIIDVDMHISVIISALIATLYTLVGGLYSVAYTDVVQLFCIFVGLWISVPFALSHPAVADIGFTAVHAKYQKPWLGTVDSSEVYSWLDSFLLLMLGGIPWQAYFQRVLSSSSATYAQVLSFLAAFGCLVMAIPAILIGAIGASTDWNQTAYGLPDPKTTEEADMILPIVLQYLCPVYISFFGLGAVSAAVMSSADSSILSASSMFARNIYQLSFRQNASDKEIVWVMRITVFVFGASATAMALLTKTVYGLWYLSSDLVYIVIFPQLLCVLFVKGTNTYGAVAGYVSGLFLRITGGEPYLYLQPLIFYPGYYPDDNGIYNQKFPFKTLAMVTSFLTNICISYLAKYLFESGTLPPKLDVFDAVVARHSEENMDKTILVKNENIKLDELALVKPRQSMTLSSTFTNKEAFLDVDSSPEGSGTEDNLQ

[5] = viability of PTEN-deleted HCT116 cells – cell-based, HCT116 PTEN knockout, dose response (AID 1047); assay type: functional;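 also: HCT116 colon tumor cells with PTEN knocked out; cells exposed to compound for 60 hours before readout; potency for loss of cell viability measured by luminescence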
[6] = target: Ion channel NompC (Danio rerio, UniProt Q7T1G6); test: Dose response cell-based high-throughput screening assay for agonists of the transient receptor potential channel N1 (TRPN1). [Related pubchem assays (depositor defined):AID1424, AID1448]; assay type: functional
Sequence of Ion channel NompC (Q7T1G6 whole entry): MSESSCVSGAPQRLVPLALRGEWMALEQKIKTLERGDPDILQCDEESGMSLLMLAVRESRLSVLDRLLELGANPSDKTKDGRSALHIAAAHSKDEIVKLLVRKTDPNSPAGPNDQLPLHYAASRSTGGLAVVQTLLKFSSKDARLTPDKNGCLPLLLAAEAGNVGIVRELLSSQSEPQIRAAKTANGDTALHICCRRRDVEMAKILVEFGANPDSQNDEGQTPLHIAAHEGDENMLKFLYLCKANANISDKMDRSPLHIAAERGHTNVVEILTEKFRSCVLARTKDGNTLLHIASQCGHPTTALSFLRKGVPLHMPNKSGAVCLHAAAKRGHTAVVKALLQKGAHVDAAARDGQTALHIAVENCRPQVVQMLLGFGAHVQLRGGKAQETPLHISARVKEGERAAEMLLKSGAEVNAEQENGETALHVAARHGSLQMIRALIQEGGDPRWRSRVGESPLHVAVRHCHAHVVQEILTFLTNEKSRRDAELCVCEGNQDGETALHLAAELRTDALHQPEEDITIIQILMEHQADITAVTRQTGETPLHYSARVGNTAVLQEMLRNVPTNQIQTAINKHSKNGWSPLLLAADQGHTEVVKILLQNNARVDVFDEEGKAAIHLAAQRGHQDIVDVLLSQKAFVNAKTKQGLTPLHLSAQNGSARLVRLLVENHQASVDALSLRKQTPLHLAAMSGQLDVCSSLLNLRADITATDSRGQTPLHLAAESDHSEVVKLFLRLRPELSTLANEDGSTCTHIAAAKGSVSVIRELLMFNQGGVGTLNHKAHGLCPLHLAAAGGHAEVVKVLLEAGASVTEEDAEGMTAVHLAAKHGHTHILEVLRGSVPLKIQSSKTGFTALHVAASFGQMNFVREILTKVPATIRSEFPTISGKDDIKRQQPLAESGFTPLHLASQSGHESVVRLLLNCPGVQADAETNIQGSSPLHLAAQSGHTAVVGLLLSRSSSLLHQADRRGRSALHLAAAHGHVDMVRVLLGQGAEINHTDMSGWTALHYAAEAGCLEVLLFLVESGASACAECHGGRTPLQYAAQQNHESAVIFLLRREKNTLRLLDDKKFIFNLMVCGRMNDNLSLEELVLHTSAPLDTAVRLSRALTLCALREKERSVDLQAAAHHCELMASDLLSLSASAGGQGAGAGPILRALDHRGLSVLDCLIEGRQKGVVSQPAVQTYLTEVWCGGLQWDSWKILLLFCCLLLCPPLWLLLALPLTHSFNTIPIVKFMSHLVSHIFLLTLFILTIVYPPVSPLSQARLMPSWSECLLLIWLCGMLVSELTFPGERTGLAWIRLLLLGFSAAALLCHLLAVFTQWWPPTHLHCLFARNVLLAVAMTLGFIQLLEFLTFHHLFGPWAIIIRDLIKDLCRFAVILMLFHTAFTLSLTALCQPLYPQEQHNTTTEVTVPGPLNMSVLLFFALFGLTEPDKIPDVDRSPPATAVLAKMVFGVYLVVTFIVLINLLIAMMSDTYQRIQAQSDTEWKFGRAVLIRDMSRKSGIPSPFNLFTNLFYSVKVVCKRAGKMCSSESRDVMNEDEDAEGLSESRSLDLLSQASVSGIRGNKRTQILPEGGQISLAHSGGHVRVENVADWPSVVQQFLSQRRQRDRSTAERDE

[7] = viability of HCT116 lacking mutant beta-catenin – cell-based, human colon tumor, dose response (AID 1045); assay type: functional;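 also: HCT116 colon tumor cells with beta catenin knocked out; cells exposed to compound for 60 hours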
[8] = target: T2, Tyrosine-protein phosphatase non-receptor type 7 (Homo sapiens, UniProt P35236); test: redox-active compounds inhibiting HePTP phosphatase – biochemical, fluorescence, mechanism study (AID 2068); assay type: functional
T2 sequence (P35236 whole entry): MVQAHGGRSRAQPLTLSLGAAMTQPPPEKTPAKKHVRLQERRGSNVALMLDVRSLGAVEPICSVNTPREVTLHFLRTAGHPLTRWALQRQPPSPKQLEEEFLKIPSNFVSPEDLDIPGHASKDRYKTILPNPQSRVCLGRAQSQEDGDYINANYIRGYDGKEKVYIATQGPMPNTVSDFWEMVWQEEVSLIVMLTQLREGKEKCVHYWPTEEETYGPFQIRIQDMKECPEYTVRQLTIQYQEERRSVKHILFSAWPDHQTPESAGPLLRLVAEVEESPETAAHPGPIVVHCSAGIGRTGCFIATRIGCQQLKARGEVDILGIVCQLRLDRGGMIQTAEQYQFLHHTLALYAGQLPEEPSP

[9] = target: T3, Tyrosine-protein phosphatase non-receptor type 22 (Homo sapiens, UniProt Q9Y2R2); test: inhibition of lymphoid tyrosine phosphatase LYP – biochemical, pCAP fluorogenic substrate, fluorescence, set 3, SAR follow-up (AID 449727); assay type: functional
T3 sequence (Q9Y2R2 whole entry): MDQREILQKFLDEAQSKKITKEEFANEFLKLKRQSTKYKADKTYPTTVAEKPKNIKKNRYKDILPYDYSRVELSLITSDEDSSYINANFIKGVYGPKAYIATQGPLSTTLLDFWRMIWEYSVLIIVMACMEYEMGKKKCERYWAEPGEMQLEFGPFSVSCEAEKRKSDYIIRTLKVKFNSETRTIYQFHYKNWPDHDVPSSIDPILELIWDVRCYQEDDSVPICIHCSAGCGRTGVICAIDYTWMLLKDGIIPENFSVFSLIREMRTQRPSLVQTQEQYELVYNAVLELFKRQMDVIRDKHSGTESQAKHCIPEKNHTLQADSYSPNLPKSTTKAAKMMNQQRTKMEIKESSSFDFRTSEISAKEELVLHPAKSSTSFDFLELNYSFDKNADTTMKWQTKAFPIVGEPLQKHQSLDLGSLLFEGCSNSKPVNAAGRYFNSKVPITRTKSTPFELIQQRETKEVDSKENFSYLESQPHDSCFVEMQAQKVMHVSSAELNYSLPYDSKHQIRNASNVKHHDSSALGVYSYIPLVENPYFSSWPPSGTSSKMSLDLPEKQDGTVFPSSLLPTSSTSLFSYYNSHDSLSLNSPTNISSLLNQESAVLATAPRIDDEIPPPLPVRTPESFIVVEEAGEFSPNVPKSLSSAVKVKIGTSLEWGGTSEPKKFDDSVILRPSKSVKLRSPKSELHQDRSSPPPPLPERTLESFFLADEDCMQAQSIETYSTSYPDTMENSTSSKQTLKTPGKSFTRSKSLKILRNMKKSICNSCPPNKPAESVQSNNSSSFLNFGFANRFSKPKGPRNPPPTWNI

[10] = target: T4, Dual specificity protein phosphatase 3 (Homo sapiens, UniProt P51452); test: SAR VHR1 Fluorescent Assay for In Vitro dose response studies. [Related pubchem assays (depositor defined):AID1654, AID1661, AID1878, AID1992, AID2004, AID2070, AID2085]; assay type: functional
T4 sequence (P51452 whole entry): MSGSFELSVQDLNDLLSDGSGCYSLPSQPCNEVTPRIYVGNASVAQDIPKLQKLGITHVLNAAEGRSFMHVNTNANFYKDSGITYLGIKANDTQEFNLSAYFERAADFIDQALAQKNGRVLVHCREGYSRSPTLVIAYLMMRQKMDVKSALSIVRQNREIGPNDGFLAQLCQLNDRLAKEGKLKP

[11] = target: T5, Dual specificity protein phosphatase 6 (Rattus norvegicus, UniProt Q64346); assay type: functional;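 also: confirmatory in vitro dose-response testing of MKP-3 inhibition; recombinant His-tagged MKP-3 made in E. coli BL21 with OMFP substrate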
T5 sequence (Q64346 whole entry): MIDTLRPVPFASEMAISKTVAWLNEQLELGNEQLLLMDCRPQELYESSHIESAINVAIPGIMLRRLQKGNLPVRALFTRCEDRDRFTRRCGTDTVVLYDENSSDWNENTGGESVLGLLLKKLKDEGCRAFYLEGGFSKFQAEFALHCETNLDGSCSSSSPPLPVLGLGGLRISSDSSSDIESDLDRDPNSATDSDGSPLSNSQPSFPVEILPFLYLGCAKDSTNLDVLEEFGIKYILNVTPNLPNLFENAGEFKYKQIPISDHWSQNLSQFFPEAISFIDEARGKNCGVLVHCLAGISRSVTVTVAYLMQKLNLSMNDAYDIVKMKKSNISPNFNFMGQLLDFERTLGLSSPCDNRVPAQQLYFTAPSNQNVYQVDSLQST

[12] = target: Tyrosine-protein phosphatase non-receptor type 12 (Homo sapiens, UniProt Q05209); test: SAR Selectivity Analysis of small molecule inhibitors of PEST using pCAP in a fluorescence assay. [Related pubchem assays (depositor defined):AID1779, AID1784, AID2135]; assay type: functional
Sequence of Tyrosine-protein phosphatase non-receptor type 12 (Q05209 whole entry): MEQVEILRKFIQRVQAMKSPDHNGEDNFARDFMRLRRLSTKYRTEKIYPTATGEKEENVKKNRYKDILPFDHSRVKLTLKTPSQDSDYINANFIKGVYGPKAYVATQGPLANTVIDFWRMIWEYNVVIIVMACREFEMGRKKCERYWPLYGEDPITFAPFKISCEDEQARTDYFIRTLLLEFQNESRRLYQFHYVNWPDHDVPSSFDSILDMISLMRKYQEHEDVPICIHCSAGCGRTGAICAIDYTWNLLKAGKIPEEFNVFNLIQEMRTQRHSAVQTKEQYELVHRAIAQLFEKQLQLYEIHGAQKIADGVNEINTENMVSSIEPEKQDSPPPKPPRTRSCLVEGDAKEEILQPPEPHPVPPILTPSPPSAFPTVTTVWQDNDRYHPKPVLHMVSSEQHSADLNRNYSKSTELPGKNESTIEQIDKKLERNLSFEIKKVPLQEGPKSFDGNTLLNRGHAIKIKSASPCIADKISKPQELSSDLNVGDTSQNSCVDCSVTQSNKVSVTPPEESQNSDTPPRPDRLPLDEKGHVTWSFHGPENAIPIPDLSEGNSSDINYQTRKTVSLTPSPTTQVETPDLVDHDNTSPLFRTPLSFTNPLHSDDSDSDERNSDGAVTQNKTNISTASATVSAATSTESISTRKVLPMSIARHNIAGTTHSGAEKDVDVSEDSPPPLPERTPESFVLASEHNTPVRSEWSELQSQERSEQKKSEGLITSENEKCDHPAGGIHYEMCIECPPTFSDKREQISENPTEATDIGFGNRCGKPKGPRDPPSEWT

[13] = target: T4, Dual specificity protein phosphatase 3; test: SAR VHR1 absorbance Assay for In Vitro dose response studies. [Related pubchem assays (depositor defined):AID1654, AID1661, AID1878, AID1992, AID2004]
[14] = target: T3, Tyrosine-protein phosphatase non-receptor type 22; test: SAR LYP1 Fluorescent Assay using OMFP substrate for In Vitro dose response studies - Set 3. [Related pubchem assays (depositor defined):AID1779, AID1784, AID2140, AID2686]; assay type: functional
[15] = A small molecule screen for inhibitors of the PhoP region in Salmonella typhi (4) using purified and synthesized compounds. [Related pubchem assays (depositor defined):AID1850, AID1864, AID1985, AID2252, AID2384, AID2612, AID2811, AID434995]; assay type: functional

Sequence of DNA damage-inducible transcript 3 protein (P35639 whole entry): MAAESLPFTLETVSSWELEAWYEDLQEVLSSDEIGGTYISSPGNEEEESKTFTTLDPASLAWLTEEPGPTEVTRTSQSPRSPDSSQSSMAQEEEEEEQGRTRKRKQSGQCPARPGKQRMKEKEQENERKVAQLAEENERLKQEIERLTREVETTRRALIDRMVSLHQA

## Cc1nc(SCC(=O)Nc2ccc(C)c(F)c2)c2oc3ccccc3c2n1
[1]
  Absolute IC50 (CHOP): 10 µM

## CCCCN=C(S)Nc1ccc([N+](=O)[O-])cc1
[2]
  AC50: 105 µM (active)
[3]
  EC50: > 29.9 µM (not active)
[4]
  IC50: 12 µM (active)
[5]
  EC50: 19.6 µM (active)
[6]
  EC50: > 29.9 µM (inactive)
[7]
  EC50: 20.7 µM (active)

## O=C(COc1c(Cl)cccc1Cl)Oc1ccc([N+](=O)[O-])cc1
[8]
  IC50: 15.1 µM (active)
[9]
  IC50: 63.7 µM (active)
[10]
  IC50: > 99 µM (inactive)
[11]
  IC50: > 99 µM (inactive)
[12]
  IC50: 42.5 µM (active)
[13]
  IC50: > 100 µM (inactive)
[14]
  IC50: > 100 µM (inactive)

## COc1cccc(CNC(=S)Nc2ccncc2)c1
[15]
  IC50: 164 µM (active)

From ChEMBL document CHEMBL1201862, “PubChem BioAssay data set” (2004)
